Reference: ChEMBL document CHEMBL4270599, “Synthesis of a 3'-C-ethynyl-β-d-ribofuranose purine nucleoside library: Discovery of C7-deazapurine analogs as potent antiproliferative nucleosides” (Eur J Med Chem, 2018)

Assays:
Format in all cases: functional
SK-OV-3 = assay: Growth inhibition of human SKOV3 cells assessed as cell growth at 10^-4 M incubated for 48 hrs by sulforhodamine B assay relative to control; details: SK-OV-3, 48 h, read-out: Activity
UACC-62 = assay: Growth inhibition of human UACC62 cells assessed as cell growth at 10^-6 M incubated for 48 hrs by sulforhodamine B assay relative to control; details: UACC-62, 48 h, read-out: Activity
OVCAR-8 [1] = assay: Growth inhibition of human OVCAR8 cells assessed as cell growth at 10^-6 M incubated for 48 hrs by sulforhodamine B assay relative to control; details: OVCAR-8, 48 h, read-out: Activity
SK-MEL-28 = assay: Cytotoxicity against human SK-MEL-28 cells after 48 hrs by SRB assay; details: SK-MEL-28, 48 h; for GI50: read-out: pGI50 (converted)
HT-29 [2] = assay: Growth inhibition of human HT-29 cells assessed as cell growth at 10^-8 M incubated for 48 hrs by sulforhodamine B assay relative to control; details: HT-29, 48 h, read-out: Activity
BT-549 [3] = assay: Growth inhibition of human BT549 cells assessed as cell growth at 10^-8 M incubated for 48 hrs by sulforhodamine B assay relative to control; details: BT-549, 48 h, read-out: Activity
A549 [4] = assay: Growth inhibition of human A549/ATCC cells assessed as cell growth at 10^-4 M incubated for 48 hrs by sulforhodamine B assay relative to control; details: A549, 48 h, read-out: Activity
OVCAR-8 [5] = assay: Cytotoxicity against human OVCAR8 cells after 48 hrs by SRB assay; details: OVCAR-8, 48 h; for GI50: read-out: pGI50 (converted); for CC50: read-out: pLC50 (the source's name) (converted)
NCI-H460 = assay: Growth inhibition of human NCI-H460 cells assessed as cell growth at 10^-7 M incubated for 48 hrs by sulforhodamine B assay relative to control; details: NCI-H460, 48 h, read-out: Activity
SW-620 [6] = assay: Growth inhibition of human SW620 cells assessed as cell growth at 10^-4 M incubated for 48 hrs by sulforhodamine B assay relative to control; details: SW-620, 48 h, read-out: Activity
RPMI-8226 = assay: Cytotoxicity against human RPMI8226 cells after 48 hrs by SRB assay; details: RPMI-8226, 48 h; for CC50: read-out: LC50 (the source's name); for GI50: read-out: pGI50 (converted)
HT-29 [7] = assay: Growth inhibition of human HT-29 cells assessed as cell growth at 10^-6 M incubated for 48 hrs by sulforhodamine B assay relative to control; details: HT-29, 48 h, read-out: Activity
SNB-19 = assay: Growth inhibition of human SNB19 cells assessed as cell growth at 10^-8 M incubated for 48 hrs by sulforhodamine B assay relative to control; details: SNB-19, 48 h, read-out: Activity
KM12 = assay: Cytotoxicity against human KM12 cells after 48 hrs by SRB assay; details: KM12, 48 h
SW-620 [8] = assay: Growth inhibition of human SW620 cells assessed as cell growth at 10^-6 M incubated for 48 hrs by sulforhodamine B assay relative to control; details: SW-620, 48 h, read-out: Activity
Malme-3M = assay: Growth inhibition of human MALME-3M cells assessed as cell growth at 10^-8 M incubated for 48 hrs by sulforhodamine B assay relative to control; details: read-out: Activity
OVCAR-4 = assay: Growth inhibition of human OVCAR4 cells assessed as cell growth at 10^-8 M incubated for 48 hrs by sulforhodamine B assay relative to control; details: OVCAR-4, 48 h, read-out: Activity
LOX IMVI = assay: Growth inhibition of human LOXIMVI cells assessed as cell growth at 10^-7 M incubated for 48 hrs by sulforhodamine B assay relative to control; details: read-out: Activity
BT-549 [9] = assay: Cytotoxicity against human BT549 cells after 48 hrs by SRB assay; details: BT-549, 48 h; for GI50: read-out: pGI50 (converted)
NCI-H322M = assay: Cytotoxicity against human NCI-H322M cells after 48 hrs by SRB assay; details: for GI50: read-out: pGI50 (converted)
SNB-75 = assay: Cytotoxicity against human SNB75 cells after 48 hrs by SRB assay; details: SNB-75, 48 h; for GI50: read-out: pGI50 (converted)
T47D = assay: Growth inhibition of human T47D cells assessed as cell growth at 10^-8 M incubated for 48 hrs by sulforhodamine B assay relative to control; details: read-out: Activity
786-0 = assay: Growth inhibition of human 786-0 cells assessed as cell growth at 10^-6 M incubated for 48 hrs by sulforhodamine B assay relative to control; details: 786-0, 48 h, read-out: Activity
TK-10 [10] = assay: Growth inhibition of human TK10 cells assessed as cell growth at 10^-4 M incubated for 48 hrs by sulforhodamine B assay relative to control; details: TK-10, 48 h, read-out: Activity
MDA-MB-468 = assay: Growth inhibition of human MDA-MB-468 cells assessed as cell growth at 10^-8 M incubated for 48 hrs by sulforhodamine B assay relative to control; details: MDA-MB-468, 48 h, read-out: Activity
A549 [11] = assay: Cytotoxicity against human A549 cells after 48 hrs by SRB assay; details: A549, 48 h; for GI50: read-out: pGI50 (converted); for CC50: read-out: pLC50 (the source's name) (converted)
SF-539 = assay: Growth inhibition of human SF539 cells assessed as cell growth at 10^-6 M incubated for 48 hrs by sulforhodamine B assay relative to control; details: SF-539, 48 h, read-out: Activity
TK-10 [12] = assay: Growth inhibition of human TK10 cells assessed as cell growth at 10^-7 M incubated for 48 hrs by sulforhodamine B assay relative to control; details: TK-10, 48 h, read-out: Activity
SK-MEL-5 = assay: Cytotoxicity against human SK-MEL-5 cells after 48 hrs by SRB assay; details: SK-MEL-5, 48 h; for GI50: read-out: pGI50 (converted); for CC50: read-out: pLC50 (the source's name) (converted)
MOLT-4 = assay: Growth inhibition of human MOLT4 cells assessed as cell growth at 10^-8 M incubated for 48 hrs by sulforhodamine B assay relative to control; details: MOLT-4, 48 h, read-out: Activity
SF-295 = assay: Growth inhibition of human SF295 cells assessed as cell growth at 10^-7 M incubated for 48 hrs by sulforhodamine B assay relative to control; details: SF-295, 48 h, read-out: Activity
HOP-92 = assay: Growth inhibition of human HOP92 cells assessed as cell growth at 10^-8 M incubated for 48 hrs by sulforhodamine B assay relative to control; details: HOP-92, 48 h, read-out: Activity
[13] = read-out: LC50 (the source's name)
[14] = read-out: pLC50 (the source's name) (converted)

C#C[C@@]1(O)[C@@H](CO)O[C@@H](n2ccc3c(N)ncnc32)[C@@H]1O
growth at 100 µM (SK-OV-3): -11% | growth at 1 µM (UACC-62): 82% | growth at 1 µM (OVCAR-8 [1]): 51% | CC50 (SK-MEL-28; [13]): > 100 µM | TGI (SK-MEL-28; read-out: TGI): 20.2 µM | GI50 (SK-MEL-28): 3.98 µM | TGI (SK-MEL-28; read-out: pTGI (converted)): 20 µM | growth at 0.01 µM (HT-29 [2]): 99% | growth at 0.01 µM (BT-549 [3]): 89% | growth at 100 µM (A549 [4]): 3% | TGI (OVCAR-8 [5]; read-out: TGI): 4.11 µM | GI50 (OVCAR-8 [5]): 1.02 µM | CC50 (OVCAR-8 [5]): 34.7 µM | TGI (OVCAR-8 [5]; read-out: pTGI (converted)): 4.07 µM | growth at 0.1 µM (NCI-H460): 91% | growth at 100 µM (SW-620 [6]): -45% | CC50 (RPMI-8226): > 100 µM | TGI (RPMI-8226; read-out: TGI): > 100 µM | GI50 (RPMI-8226): 0.776 µM | TGI (RPMI-8226; read-out: pTGI (converted)): > 100 µM | growth at 1 µM (HT-29 [7]): 49% | growth at 0.01 µM (SNB-19): 99% | TGI (KM12; read-out: TGI): 10.9 µM | CC50 (KM12; [14]): 91.2 µM | TGI (KM12; read-out: pTGI (converted)): 11 µM | growth at 1 µM (SW-620 [8]): 38% | growth at 0.01 µM (Malme-3M): 86% | growth at 0.01 µM (OVCAR-4): 93% | growth at 0.1 µM (LOX IMVI): 99% | TGI (BT-549 [9]; read-out: TGI): 3.64 µM | GI50 (BT-549 [9]): 1.62 µM | CC50 (BT-549 [9]; [14]): 8.13 µM | TGI (BT-549 [9]; read-out: pTGI (converted)): 3.63 µM | TGI (NCI-H322M; read-out: TGI): 6.08 µM | GI50 (NCI-H322M): 1.29 µM | CC50 (NCI-H322M; [14]): 50.1 µM | TGI (NCI-H322M; read-out: pTGI (converted)): 6.03 µM | TGI (SNB-75; read-out: TGI): 3.84 µM | GI50 (SNB-75): 1.82 µM | TGI (SNB-75; read-out: pTGI (converted)): 3.8 µM | growth at 0.01 µM (T47D): 92% | growth at 1 µM (786-0): 68% | growth at 100 µM (TK-10 [10]): -5% | growth at 0.01 µM (MDA-MB-468): 93% | TGI (A549 [11]; read-out: TGI): > 100 µM | GI50 (A549 [11]): 1.32 µM | CC50 (A549 [11]): > 100 µM | TGI (A549 [11]; read-out: pTGI (converted)): > 100 µM | growth at 1 µM (SF-539): 88% | growth at 0.1 µM (TK-10 [12]): 110% | TGI (SK-MEL-5; read-out: TGI): 2.96 µM | GI50 (SK-MEL-5): 1.55 µM | CC50 (SK-MEL-5): 5.62 µM | TGI (SK-MEL-5; read-out: pTGI (converted)): 2.95 µM | growth at 0.01 µM (MOLT-4): 96% | growth at 0.1 µM (SF-295): 98% | growth at 0.01 µM (HOP-92): 92%

C#C[C@@]1(O)[C@@H](CO)O[C@@H](n2cc(F)c3c(N)ncnc32)[C@@H]1O
growth at 100 µM (SK-OV-3): -30% | growth at 1 µM (UACC-62): 12% | growth at 1 µM (OVCAR-8 [1]): 15% | TGI (SK-MEL-28; read-out: TGI): > 100 µM | GI50 (SK-MEL-28): 4.27 µM | CC50 (SK-MEL-28; [14]): > 100 µM | TGI (SK-MEL-28; read-out: pTGI (converted)): > 100 µM | growth at 0.01 µM (HT-29 [2]): 96% | growth at 0.01 µM (BT-549 [3]): 98% | TGI (OVCAR-8 [5]; read-out: TGI): 3.69 µM | GI50 (OVCAR-8 [5]): 0.257 µM | CC50 (OVCAR-8 [5]): > 100 µM | TGI (OVCAR-8 [5]; read-out: pTGI (converted)): 3.72 µM | growth at 0.1 µM (NCI-H460): 76% | growth at 100 µM (SW-620 [6]): -23% | CC50 (RPMI-8226): > 100 µM | TGI (RPMI-8226; read-out: TGI): 1.98 µM | GI50 (RPMI-8226): 0.219 µM | TGI (RPMI-8226; read-out: pTGI (converted)): 2 µM | growth at 1 µM (HT-29 [7]): 11% | growth at 0.01 µM (SNB-19): 93% | CC50 (KM12; [13]): > 100 µM | TGI (KM12; read-out: TGI): 24.9 µM | GI50 (KM12; read-out: pGI50 (converted)): 0.501 µM | TGI (KM12; read-out: pTGI (converted)): 25.1 µM | growth at 1 µM (SW-620 [8]): 4% | growth at 0.01 µM (Malme-3M): 103% | growth at 0.01 µM (OVCAR-4): 100% | growth at 0.1 µM (LOX IMVI): 87% | CC50 (BT-549 [9]; [13]): > 100 µM | TGI (BT-549 [9]; read-out: TGI): 4.18 µM | GI50 (BT-549 [9]): 0.851 µM | TGI (BT-549 [9]; read-out: pTGI (converted)): 4.17 µM | CC50 (NCI-H322M; [13]): > 100 µM | TGI (NCI-H322M; read-out: TGI): 4.48 µM | GI50 (NCI-H322M): 0.501 µM | TGI (NCI-H322M; read-out: pTGI (converted)): 4.47 µM | TGI (SNB-75; read-out: TGI): 2.32 µM | GI50 (SNB-75): 1.02 µM | CC50 (SNB-75; [14]): 5.25 µM | TGI (SNB-75; read-out: pTGI (converted)): 2.34 µM | growth at 0.01 µM (T47D): 101% | growth at 1 µM (786-0): 43% | growth at 100 µM (TK-10 [10]): -24% | growth at 0.01 µM (MDA-MB-468): 92% | TGI (A549 [11]; read-out: TGI): 2.64 µM | GI50 (A549 [11]): 0.38 µM | CC50 (A549 [11]): > 100 µM | TGI (A549 [11]; read-out: pTGI (converted)): 2.63 µM | growth at 1 µM (SF-539): 60% | growth at 0.1 µM (TK-10 [12]): 102% | TGI (SK-MEL-5; read-out: TGI): 1.33 µM | GI50 (SK-MEL-5): 0.269 µM | CC50 (SK-MEL-5): 4.17 µM | TGI (SK-MEL-5; read-out: pTGI (converted)): 1.35 µM | growth at 0.01 µM (MOLT-4): 99% | growth at 0.1 µM (SF-295): 94% | growth at 0.01 µM (HOP-92): 121%
